Measured values as given in patent publication US20030206895A1, “Antioxidant composition comprising propionyl L-carnitine and a flavonoid against throm-bosis and atherosclerosis” (priority 1998, published 2003).

Experiments:
[1] = tested on: mice treated with mitomycin C; experiment: Tests on leukopenia induced by mitomycin C; type: in vivo; conditions: for Number of leukocytes after 5 days / Number of leukocytes after 10 days / Number of leukocytes after 12 days / protective effect against leukopenia and toxicity of mitomycin C (in words): mice; for Number of leukocytes after 5 days / Number of leukocytes after 10 days / Number of leukocytes after 12 days / % Mice surviving after 5 days / % Mice surviving after 10 days / % Mice surviving after 12 days: mitomycin C 50 μg/mouse i.p. five days, oral carnitine(s) 300 mg/kg, quercetin 100 mg/kg; for protective effect against leukopenia and toxicity of mitomycin C (in words): oral
Method: To evaluate the immunostimulatory effect of the combination of propionyl L-carnitine or carnitine mixture plus quercetin, the effect of these products was evaluated on the toxic and immunosuppressive activity induced by mitomycin C.

[2] = tested on: anaphylactic shock in guinea-pigs; experiment: Anaphylactic shock tests (horse serum sensitisation); type: in vivo; conditions: oral; for Surviving/treated animals: carnitine(s) 300 mg/kg, quercetin 50 mg/kg
Method: These tests were performed using male albino guinea-pigs with a mean weight of 300 g; the animals received intraperitoneal injections of 1 cc of horse serum diluted 1:10.
After twenty-five days, intravenous injection of 1 cc of horse serum triggered anaphylactic shock with onset of bronchospasm and death of the animals. Five days before the shock-triggering injection, the sensitised animals were treated orally either with propionyl L-carnitine (300 mg/kg), or with carnitine mixture (300 mg/kg), or with quercetin (50 mg/kg), or with various combinations of these compounds.

[3] = Toxicology, single oral administration in the rat; conditions: up to 4 g/kg
[4] = tested on: experimental atherosclerosis in rabbits; experiment: Antiatherosclerotic activity tests: biochemical and histological parameters, arteriosclerotic lesions of heart and aorta; type: in vivo, New Zealand rabbits; conditions: rabbit, cholesterol-enriched diet, thirty days; carnitine(s) 400 mg/kg, quercetin 50 mg/kg
Method: (§1) In these tests, experimental atherosclerosis was induced in rabbits by administering 0.5% of cholesterol by weight together with the standard diet.
(§2) The liver was then removed from each animal and used to assay total cholesterol and triglycerides according to the method of Dehoff (Dehoff J. L., Clin. Chem., 24, 433, 1978) and Levy (Levy A., Advances in Automated Analysis, 497—Thurman—Miami, 1972). Arteriosclerotic lesions at the level of the heart and aorta were assessed according to the Klurfield method (Klurfield D. M., J. Med., 10, 35, 1979), grading them from I to IV according to the severity of the damage detected.
The greatest degree of protective activity, however, is that achieved when carnitine and quercetin are administered in combination.

[5] = tested on: hypercholesterolaemic rabbits; experiment: Antiatherosclerotic activity tests: plasma lipoprotein concentrations; type: in vivo, New Zealand rabbits; conditions: thirty days, carnitine(s) 400 mg/kg, quercetin 50 mg/kg
Source text: as §1
After thirty days' treatment, a blood sample was taken from the central artery of the ear in each animal and used to assay the lipoproteins present according to the method described by Hatch (Hatch F. T., Advan. Lipid Res., 6, 1, 1968).

[6] = tested on: hypercholesterolaemic rabbits; experiment: Antiatherosclerotic activity tests: liver total cholesterol and triglycerides; type: in vivo, New Zealand rabbits; conditions: thirty days, carnitine(s) 400 mg/kg, quercetin 50 mg/kg
Method: as §2, with “497-Thurman-Miami,” for “497—Thurman—Miami,”, “([…].” for “(Klurfield D. M., J.”

[7] = tested on: oedema induced in the rat paw by carrageenin; experiment: Anti-inflammatory activity tests: carrageenin-induced oedema of the rat paw; type: in vivo; conditions: for anti-oedema / anti-inflammatory effect (in words): rat paw, carrageenin
Method: To this end, 0.1 cc of a 1% carrageenin solution (Sigma, St, Louis, USA) were injected in the subplantar zone of the rat paw. The volume of oedema of the paw was measured by means of a mercury plethysmograph at intervals of one hour over the four-hour period following injection of carrageenin. One hour prior to injection, of carrageenin the animals received oral administrations either of propionyl L-carnitine (300 mg/kg and 150 mg/kg), or carnitine mixture (acetyl L-carnitine, propionyl L-carnitine, isovaleryl L-carnitine; 300 mg/kg and 150 mg/kg), or quercetin (100 mg/kg and 50 mg/kg), or various combinations of these compounds.

[8] = tested on: platelet aggregation induced by collagen; experiment: Platelet aggregation tests (collagen-induced, Born photometric method); type: cell-based, human (healthy volunteers); conditions: 10 minutes' incubation
Method: Blood samples taken from healthy volunteers were used for these tests.
The blood samples were treated with sodium citrate and centrifuged for 8 minutes at 100 rpm. The number of platelets was counted and brought to a fixed level of […] by adding platelet poor plasma (PPP) where necessary.
Platelet aggregation was induced using collagen (2.5 μg/ml, 5 μg/ml) as the aggregating agent and determined photometrically according to the method described by Born (Born G. V. R., Nature, 194, 927, 1962).
Platelet aggregation was measured in baseline conditions and after 10 minutes' incubation with quercetin or propionyl L-carnitine or with a combination of quercetin and propionyl L-carnitine in the same amounts.
The propionyl L-carnitine doses were 10 μg and 20 μg/ml, while the quercetin doses were 0.1 μg and 0.25 μg/ml.

[9] = rat, oral, carnitine(s) 300 mg/kg and/or quercetin 100 mg/kg
[10] = rat, oral, carnitine(s) 150 mg/kg and/or quercetin 50 mg/kg

Compound | Number of leukocytes after 5 days [1] | Number of leukocytes after 10 days [1] | Number of leukocytes after 12 days [1] | protective effect against leukopenia and toxicity of mitomycin C (in words) [1] | % Mice surviving after 5 days [1] | % Mice surviving after 10 days [1] | % Mice surviving after 12 days [1] | protection against death by anaphylactic shock (in words) [2] | Surviving/treated animals [2] | biochemical and histological parameters of experimentally induced atherosclerosis [4] | Plasma HDL [5] | Plasma LDL [5] | Plasma VLDL [5] | Liver triglycerides [6] | anti-oedema / anti-inflammatory effect (in words) [7] | % reduction of carrageenin-induced oedema after 1 h [7, 9] | % reduction of carrageenin-induced oedema after 2 h [7, 9] | % reduction of carrageenin-induced oedema after 3 h [7, 9] | also measured
CCC(=O)O[C@H](CC(=O)[O-])C[N+](C)(C)C [Propionyl L-carnitine, propionyl L-carnitine] | 6,000 ± 310 | 5,400 ± 280 | 2,100 ± 125 | modest | 60% | 45% | 30% | no protective effect | 2/10 | capable of reducing | 26.4 ± 3.9 mg/dL | 380 ± 21.5 mg/dL | 855 ± 32.5 mg/dL | 165 ± 14.5 mg/g | modest anti-oedema effect | 12 ± 0.1% | 10 ± 0.2% | 6 ± 0.5% | signs of toxicity [3]: without any signs of toxicity; modification of platelet aggregating action induced by collagen ([8]; propionyl L-carnitine 10 μg and 20 μg/ml): did not prove capable of modifying
O=c1c(O)c(-c2ccc(O)c(O)c2)oc2cc(O)cc(O)c12 [Quercetin, quercetin] | 5,600 ± 480 | 4,800 ± 410 | 2,800 ± 310 | modest | 70% | 30% | 30% | no protective effect | 3/10 | good inhibitory activity | 28.6 ± 3.8 mg/dL | 298 ± 30.1 mg/dL | 816 ± 37.5 mg/dL | 130 ± 14.5 mg/g | modest anti-oedema effect | 18 ± 1.2% | 22 ± 2.5% | 20 ± 19% | % reduction of carrageenin-induced oedema after 1 h [7, 10]: 8 ± 0.6%; % reduction of carrageenin-induced oedema after 2 h [7, 10]: 10 ± 0.2%; % reduction of carrageenin-induced oedema after 4 h [7, 9]: 18 ± 1.5%; reduction of collagen-induced platelet aggregation ([8]; quercetin 0.25 μg): 50%
